From the NIST ThermoML archive (doi:10.1016/j.jct.2011.04.015)
± gives the expanded uncertainty stated by the source.

Key:
[1] = Crystal; DTA
[2] = Molar enthalpy of transition or fusion; details: Crystal; DSC
[3] = molar enthalpy of vaporization or sublimation; details: 298.15 K; Crystal; Static calorimetry

O=c1ccc2ccc(O)cc2o1 [7-hydroxy-2H-chromen-2-one]
Triple point temperature [1]: 503.74 ± 0.39 K
Molar enthalpy of transition or fusion [2]: 7.47 ± 0.167 kcal/mol
molar enthalpy [3]: 31.9 ± 0.717 kcal/mol
